In patent US8859512B2, “Anti-viral pyrimidine nucleoside derivatives” (University College Cardiff Consultants Limited, priority 2006, dated 2014):
Where “and” joins values, the source holds several entries; their conditions need not be identical. Equal values may be shown once. Entries after “also recorded” stand apart in the source; their conditions may differ.

Assays:
[1] = test system: thymidine-kinase deficient Oka VZV strain in HEL cells; experiment: Viral plaque formation reduction in HEL cells inoculated with VZV Oka strain; type: cell-based, Varicella Zoster virus; conditions: for antiviral activity (in words): in vitro
[2] = Pilot oral pharmacokinetic study in female mice, plasma Compound 1 by HPLC with fluorescence detection; type: in vivo; conditions: single oral gavage 31.25 mg/kg vs Compound 1 25 mg/kg

Compound | EC50 ([1]; Human alphaherpesvirus 3, HEL, read-out: EC50 in VZV OKA) | antiviral activity (in words) [1] | plasma concentrations of Compound 1 compared to mice receiving Compound 1 (in words) [2]
CCCCCc1ccc(-c2cc3cn(C4CC(O)C(COC(=O)C(N)C(C)C)O4)c(=O)nc3o2)cc1 (stereo not shown) [Compound 5] | 16 nM and 0.008 µg/mL | active; also recorded: comparable in vitro antiviral activity to Compound 1 | much higher
CCCCCc1ccc(-c2cc3cn(C4CC(O)C(COC(=O)C(N)C(C)C)O4)c(=O)nc3o2)cc1.Cl (stereo not shown) [Compound 6] |  | active | 
